Data taken from PMC8022858, “Discovery of bone morphogenetic protein 7-derived peptide sequences that attenuate the human osteoarthritic chondrocyte phenotype” (Molecular Therapy. Methods & Clinical Development, 2021).

System: human OA meniscus explants
Assay: PGE2 levels in culture supernatant of meniscus explants
Format: cell-based
Details: 24 h, relative to control (Figure 6F)
Protocol: Figure 6 Peptide p[63−82] activity on OA knee joint tissues Human OA knee joint tissues were cultured for 24 h in the presence of BMP7, peptide p[63−82], or the scrambled version of peptide p[63−82] and compared to control conditions. (A) Cartilage tissues (n = 7 individual donors) were exposed to shown conditions and analyzed for COL2A1, COL10A1, and COX-2 mRNA expression by quantitative real-time PCR (normalized for 28S rRNA expression and relative to control conditions). (B) GAG release in medium from cartilage tissues (n = 5 individual donors) was determined, and data were calculated relative to the control condition. (C) PGE2 levels in culture supernatant from synovium (n = 5 donors). (D) PGE2 levels in culture supernatant from cartilage tissues from (B) (n = 5 donors). (E) PGE2 levels in culture supernatant from IPFP (n = 5 donors). (F) PGE2 levels in culture supernatant from the meniscus. Synovium, IPFP, and meniscus tissues were from the same 5 donors as the cartilage tissues in (B) and (C). PGE2 levels in conditions were calculated relative to controls for each donor. In graphs, error bars represent mean ± SEM; data are presented relative to the control condition for each time point. Statistical differences (unpaired two-tailed Student’s t test) were calculated to control condition: ∗p < 0.05, ∗∗p < 0.01, and ∗∗∗p < 0.001. […]

Substance: BMP7: full-length recombinant bone morphogenetic protein 7 (R&D Systems), used at 1 nM
- PGE2 levels from meniscus explants: reduced

Substance: H-AAYYSEGESAFPLNSYMNAT-OH [p[63−82]]
- PGE2 levels from meniscus explants: reduced
